# Like-named read-outs stand apart in the source and are kept apart here.
# Key:
# [1] = system: Balamuthia mandrillaris (CDC:V039; ATCC 50209) trophozoites; test: CellTiter-Glo 2.0 trophocidal assay, B. mandrillaris; format: cell-based
# Excerpt: For sub-culturing, 0.25% Trypsin–EDTA (Gibco) cell detachment reagent was used to detach the cells from the culture flasks.
# [2] = system: Acanthamoeba castellanii T4 isolate (ATCC 50370) trophozoites; test: CellTiter-Glo 2.0 trophocidal assay, A. castellanii; format: cell-based; details: Acanthamoeba castellanii, ATCC50370, 72 h, read-out: Acanthamoeba castellanii EC50 ± SD
# Excerpt: This isolate was purchased from American Type Culture Collection (ATCC). […] For sub-culturing, cells were mechanically harvested to detach the cells from the culture flasks.
# [3] = system: Naegleria fowleri (ATCC 30215) trophozoites; test: microbe, parasite or virus in culture; details: Naegleria fowleri, read-out: Naegleria fowleri EC50 ± SD, logarithmic trophozoites, 72 h, n = 3 (converted)
# Procedure: Trophozoites were routinely grown axenically at 34°C, 5% CO2, in Nelson’s complete medium (NCM) in non-vented 75 cm^2 tissue culture flasks (Olympus), until the cells were 80–90% confluent. For sub-culturing, cells were placed on ice to detach the cells from the culture flasks. […] Complete NCM media is prepared by the addition of 10% fetal bovine serum (FBS) and 100 U/mL penicillin, and 100 μg/mL streptomycin antibiotics.
# Trophozoites were routinely cultured as described above and only logarithmic trophozoites were used.
# All assays were incubated at each of the parasites’ representative growth temperatures, described above, for 72 h. At the 72-h time point, 25 μL of CellTiter-Glo 2.0 reagent was added to all wells of the 96-well plates by hand. The plates were protected from light and contents were mixed using an orbital shaker at 300 rpm at room temperature for 2 min to induce cell lysis. After shaking, the plates were equilibrated at room temperature for 10 min to stabilize the luminescent signal. The ATP luminescent signal (relative light units; RLUs) were measured […] with a SpectraMax I3X plate reader (Molecular Devices, Sunnyvale, CA, United States). […] Values reported are from a minimum of three biological replicates with standard deviation.
# [4] = Balamuthia mandrillaris, ATCC50209, 72 h, read-out: Balamuthia mandrillaris EC50 ± SD, logarithmic trophozoites, 72 h, n = 3 (converted)
# [5] = Balamuthia mandrillaris, ATCC50209, 72 h, logarithmic trophozoites, 72 h, n = 3, read-out: Balamuthia mandrillaris EC50 ± SD
# [6] = logarithmic trophozoites, 72 h, n = 3
# [7] = Balamuthia mandrillaris, ATCC50209, 72 h, read-out: Balamuthia mandrillaris EC50 ± SD
Compound,"EC50 [1, 4]",EC50 [2],"EC50 [1, 5]","EC50 [2, 6]",EC50 ([3]; 72 h),also measured
CC(=O)c1ccc2c(c1)c1cc(C(C)=O)ccc1n2CCNC1CCCC1 [Compound 8k],7.4 ± 0.36 µM,–,–,–,–,–
CC(=O)c1ccc2c(c1)c1cc(C(C)=O)ccc1n2CCN1CCOC[C@H]1C [Compound 8l],12 µM,–,–,–,–,"EC50 ([1]; read-out: Balamuthia mandrillaris EC50 ± SD, logarithmic trophozoites, 72 h, n = 3): 13 ± 0.35 µM"
"Cc1n[nH]c(Nc2cccc3c2CCO3)c1C [Compound S6, N-(2,3-Dihydrobenzofuran-4-yl)-3,4-dimethyl-1H-pyrazol-5-amine]",> 20 µM,> 20 µM,–,–,–,–
"Cc1n[nH]c(Nc2cccc3c2CN(C)C3=O)c1C [Compound S8, 4-((3,4-Dimethyl-1H-pyrazol-5-yl)amino)-2-methylisoindolin-1-one]",> 20 µM,> 20 µM,–,–,–,–
"c1cnc(Nc2ccnc3cc(C4CCCNC4)ccc23)cn1 (stereo not shown) [Compound S18, 7-(Piperidin-3-yl)-N-(pyrazin-2-yl)quinolin-4-amine]",–,–,> 20 µM,> 20 µM,–,"EC50 ([3]; ATCC30215, 72 h): > 20 µM"
c1nc2c(N3CCOCC3)nc(Nc3ccsc3)nc2[nH]1 [Compound S25],–,–,> 20 µM,> 20 µM,> 20 µM,–
CC(C)(C)c1ccc(Nc2nccc(-c3c(-c4ccc(C(F)(F)F)cc4)nn4ncccc34)n2)cc1 [Compound S26],–,> 20 µM,–,–,> 20 µM,"EC50 [1, 7]: > 20 µM"
CC(C)(O)c1nn2ncccc2c1-c1ccnc(Nc2ccc(C(N)=O)cc2)n1 [Compound S27],–,> 20 µM,–,–,> 20 µM,"EC50 [1, 7]: > 20 µM"
c1cnn2ncc(-c3ccncc3)c2c1 [Compound S28],–,> 20 µM,–,–,> 20 µM,"EC50 [1, 7]: > 20 µM"
N#Cc1cccc(Nc2nccc(-c3c(CO)nn4nc(N5CCOCC5)ccc34)n2)c1 [Compound S29],–,> 20 µM,–,–,> 20 µM,"EC50 [1, 7]: > 20 µM"
CN1CCCN(c2ncc(-c3ccc4c(Nc5cnccn5)ccnc4c3)cn2)CC1 [Compound S33],–,–,> 20 µM,> 20 µM,> 20 µM,–
CN1C[C@@H]2C[C@H]1CN2c1ncc(-c2ccc3c(Nc4cnccn4)ccnc3c2)cn1 [Compound S34],–,–,> 20 µM,> 20 µM,> 20 µM,–
CN1CCC2(CC1)CCN(c1ncc(-c3ccc4c(Nc5cnccn5)ccnc4c3)cn1)CC2 [Compound S35],–,–,> 20 µM,> 20 µM,> 20 µM,–
CN1C[C@H]2C[C@@H]1CN2c1ncc(-c2ccc3c(Nc4cnccn4)ccnc3c2)cn1 [Compound S36],–,–,> 20 µM,> 20 µM,> 20 µM,–
CC(=O)c1ccc2c(c1)c1cc(C(C)=O)ccc1n2-c1ccc(N(C)C)cc1 [Compound S37],–,–,> 20 µM,> 20 µM,> 20 µM,–
CC(=O)c1ccc2c(c1)c1cc(C(C)=O)ccc1n2CCN1CCNCC1 [Compound S38],> 20 µM,> 20 µM,–,–,> 20 µM,–
CC(=O)c1ccc2c(c1)c1cc(C(C)=O)ccc1n2CCN1CC(F)C1 [Compound S39],> 20 µM,> 20 µM,–,–,–,–
CC(=O)c1ccc2c(c1)c1cc(C(C)=O)ccc1n2CCOC(C)C [Compound S40],> 20 µM,> 20 µM,–,–,–,–
CC(=O)c1ccc2c(c1)c1cc(C(C)=O)ccc1n2CCN1CC(N(C)C)C1 [Compound S41],> 20 µM,> 20 µM,–,–,–,–
CC(=O)c1ccc2c(c1)c1cc(C(C)=O)ccc1n2CCNCCN(C)C [Compound S42],> 20 µM,> 20 µM,–,–,–,–
CC(=O)c1ccc2c(c1)c1cc(C(C)=O)ccc1n2CCn1ccnc1 [Compound S43],> 20 µM,> 20 µM,–,–,> 20 µM,–
"N=C(N)c1ccc(OCCCCCOc2ccc(C(=N)N)cc2)cc1 [Pentamidine, reference compound]",–,–,18.4 ± 1.47 µM,4.2 ± 0.08 µM,–,"EC50 ([3]; ATCC30215, 72 h): > 50 µM"
"CCC(C)(C)C(=O)O[C@H]1C[C@@H](C)C=C2C=C[C@H](C)[C@H](CC[C@@H]3C[C@@H](O)CC(=O)O3)[C@H]21 [Simvastatin, reference compound]",–,–,6.9 ± 0.04 µM,–,–,–
